Source: US9499476B2, “Acetamide stereoisomer” (SUNOVION PHARMACEUTICALS INC., priority 2007, dated 2016)
Marks after values point to notes of the source that are not given here.

Columns and labels:
[1] = target: T1, human recombinant β2 receptors (Homo sapiens, UniProt P07550); assay: Intrinsic activity assessment (β2), cAMP production in CHO cells; type: cell-based; conditions: relative to procaterol, read-out: intrinsic activity (% response relative to procaterol-induced cAMP increase)
[2] = Stability in aqueous buffered solutions (HPLC assay); type: physicochemical
Method: Stability in Aqueous Buffered Solutions
Solution Preparations: For each test compound, the following solutions are prepared.
• Solution A is prepared from ˜30 mg of the test compound in 150 mL of 0.005 M citrate buffer, pH 5.0 (˜0.2 mg/mL). • Solution B is prepared as follows: approximately 30 mL aliquot of Solution A is transferred to a separated container and the pH of the solution is adjusted to pH 3.0 with 1 N HCl (˜0.2 mL). • Solution C is prepared as follows: approximately 30 mL aliquot of Solution A is transferred to a separated container and the pH of the solution is adjusted to pH ˜8.0 with 1 N NaOH (˜0.2 mL). • Note: Because the volume of 1 N HCl or 1 N NaOH used for adjusting pH was negligible, the concentration of test compound in Solutions A, B and C were the same.
Storage Scheme • As soon as the above solutions were prepared, aliquots of each solution were transferred into 11 vials, of which 9 vials are stored at −20° C., and one each is stored at 30° C. and 40° C., respectively. • At each interval listed below, two vials are removed from −20° C. storage, and stored at 30° C. and 40° C., respectively. • The corresponding weeks under the storage condition (30° C. or 40° C.) are shown in the table below.
On Week 12, the last vial stored at −20° C. is removed and warmed up to the room temperature, which is the Day 0 Solution.
Sample Analysis: On Week 12, all solutions are assayed by an HPLC method using the Day 0 Solution at pH 5 as a standard solution. The test compounds were assayed by HPLC with UV detection (refer to Table 1 for method conditions).

[3] = target: T1, human recombinant β2 receptors; assay: β2 radioligand binding assay
[4] = target: T2, human recombinant β1 receptors (Homo sapiens, UniProt P08588); assay: β1 radioligand binding assay
T2 construct: expressed in transfected cells; host or cells: CHO cells

adrenergic β1 receptors = adrenergic β1 receptors (Cavia porcellus, UniProt H0W3H1); assay: β1 adrenergic functional activity, positive chronotropic effect in isolated right atria; parameters: species or system Dunkin Hartley Guinea pigs; conditions: read-out: increase in heart rate, β1 functional assay
Text: β1 and β2 Adrenergic Activity (Functional)
The concentration that gives 50% maximal effect is the EC50.

adrenergic β2 receptors = target: T3, adrenergic β2 receptors (Cavia porcellus, UniProt Q8K4Z4); assay: β2 adrenergic functional activity, relaxation of spontaneous tone of isolated trachea; parameters: species or system Dunkin Hartley Guinea pigs
T3 construct: from tissue; host or cells: isolated trachea, Dunkin Hartley guinea pig
T3 sequence (Q8K4Z4 whole entry): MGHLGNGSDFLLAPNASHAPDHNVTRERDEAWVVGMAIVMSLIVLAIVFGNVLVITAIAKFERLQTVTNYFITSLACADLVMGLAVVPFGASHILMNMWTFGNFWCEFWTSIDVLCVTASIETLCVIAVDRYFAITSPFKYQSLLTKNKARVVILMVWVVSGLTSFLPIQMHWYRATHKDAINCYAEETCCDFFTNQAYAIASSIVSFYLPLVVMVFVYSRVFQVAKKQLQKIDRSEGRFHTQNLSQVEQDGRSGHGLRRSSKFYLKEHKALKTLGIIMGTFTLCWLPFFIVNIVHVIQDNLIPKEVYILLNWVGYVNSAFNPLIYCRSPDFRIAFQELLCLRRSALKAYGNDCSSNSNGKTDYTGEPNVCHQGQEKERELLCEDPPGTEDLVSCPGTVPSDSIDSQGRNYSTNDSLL

T1 sequence (P07550 whole entry): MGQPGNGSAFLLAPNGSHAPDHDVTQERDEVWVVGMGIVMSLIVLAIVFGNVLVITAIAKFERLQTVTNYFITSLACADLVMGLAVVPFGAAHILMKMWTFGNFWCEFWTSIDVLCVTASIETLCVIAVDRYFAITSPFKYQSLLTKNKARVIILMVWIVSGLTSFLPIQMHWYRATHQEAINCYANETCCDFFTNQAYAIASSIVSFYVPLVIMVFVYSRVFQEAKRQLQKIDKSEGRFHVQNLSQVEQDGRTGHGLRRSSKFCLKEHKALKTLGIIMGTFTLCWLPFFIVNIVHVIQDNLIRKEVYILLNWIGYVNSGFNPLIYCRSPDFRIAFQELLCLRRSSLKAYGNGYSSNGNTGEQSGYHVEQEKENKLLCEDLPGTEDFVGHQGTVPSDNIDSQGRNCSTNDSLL
T2 sequence (P08588 whole entry): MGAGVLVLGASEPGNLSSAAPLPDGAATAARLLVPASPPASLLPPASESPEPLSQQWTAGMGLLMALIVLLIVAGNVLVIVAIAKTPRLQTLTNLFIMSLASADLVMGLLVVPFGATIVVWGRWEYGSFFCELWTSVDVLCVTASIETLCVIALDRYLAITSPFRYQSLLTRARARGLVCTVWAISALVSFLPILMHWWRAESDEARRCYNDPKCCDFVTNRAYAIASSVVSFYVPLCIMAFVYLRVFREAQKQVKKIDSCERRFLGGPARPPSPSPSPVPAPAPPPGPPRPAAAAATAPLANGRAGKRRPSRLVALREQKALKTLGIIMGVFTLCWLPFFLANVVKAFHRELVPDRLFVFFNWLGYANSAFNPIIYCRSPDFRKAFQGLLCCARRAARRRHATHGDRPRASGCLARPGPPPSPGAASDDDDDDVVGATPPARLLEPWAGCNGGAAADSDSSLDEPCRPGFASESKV
Chain of adrenergic β1 receptors (H0W3H1 1-470): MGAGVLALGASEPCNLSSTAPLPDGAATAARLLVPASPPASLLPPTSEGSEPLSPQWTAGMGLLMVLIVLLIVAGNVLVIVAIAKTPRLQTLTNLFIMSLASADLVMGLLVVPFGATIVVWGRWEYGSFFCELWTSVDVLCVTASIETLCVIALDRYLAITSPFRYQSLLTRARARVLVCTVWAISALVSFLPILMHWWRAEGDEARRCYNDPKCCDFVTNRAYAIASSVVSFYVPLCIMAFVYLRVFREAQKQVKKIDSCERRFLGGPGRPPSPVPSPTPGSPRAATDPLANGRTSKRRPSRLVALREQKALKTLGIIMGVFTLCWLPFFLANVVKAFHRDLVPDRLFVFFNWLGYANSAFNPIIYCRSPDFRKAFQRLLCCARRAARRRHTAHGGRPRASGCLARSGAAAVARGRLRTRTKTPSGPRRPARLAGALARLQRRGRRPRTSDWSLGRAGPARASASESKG

CC(=O)Nc1cc([C@H](O)CN[C@H](C)Cc2ccc(O)cc2)ccc1O [Example 1, N-[2-hydroxy-5-[(1S)-1-hydroxy-2-[[(1R)-2-(4-hydroxyphenyl)-1-methylethyl]amino]ethyl]phenyl]acetamide]
Emax [1]: 71% | % of Initial Concentration ([2]; pH 3.0, 30° C., 0 wk): 99.46% | % of Initial Concentration ([2]; pH 3.0, 30° C., 1 wk): 100.03% | % of Initial Concentration ([2]; pH 3.0, 30° C., 2 wk): 99.84% | % of Initial Concentration ([2]; pH 3.0, 30° C., 4 wk): 101.41% | % of Initial Concentration ([2]; pH 3.0, 30° C., 8 wk): 100.33% | % of Initial Concentration ([2]; pH 3.0, 30° C., 12 wk): 100.29% | % of Initial Concentration ([2]; pH 3.0, 40° C., 0 wk): 99.46% | % of Initial Concentration ([2]; pH 3.0, 40° C., 1 wk): 99.89% | % of Initial Concentration ([2]; pH 3.0, 40° C., 2 wk): 100.11% | % of Initial Concentration ([2]; pH 3.0, 40° C., 4 wk): 99.54% | % of Initial Concentration ([2]; pH 3.0, 40° C., 8 wk): 99.18% | % of Initial Concentration ([2]; pH 3.0, 40° C., 12 wk): 97.17% | time found to be very stable in aqueous solution ([2]; pH 3 or 5, stored at 30° C.): at least 12 weeks | % of Initial Concentration ([2]; pH 5.0, 30° C., 0 wk): 100.25% | % of Initial Concentration ([2]; pH 5.0, 30° C., 1 wk): 101.22% | % of Initial Concentration ([2]; pH 5.0, 30° C., 2 wk): 101.07% | % of Initial Concentration ([2]; pH 5.0, 30° C., 4 wk, flagged out of trend): 112.52* % | % of Initial Concentration ([2]; pH 5.0, 30° C., 8 wk): 107.12% | % of Initial Concentration ([2]; pH 5.0, 30° C., 12 wk): 107.75% | % of Initial Concentration ([2]; pH 5.0, 40° C., 0 wk): 100.25% | % of Initial Concentration ([2]; pH 5.0, 40° C., 1 wk): 102.00% | % of Initial Concentration ([2]; pH 5.0, 40° C., 2 wk): 102.73% | % of Initial Concentration ([2]; pH 5.0, 40° C., 4 wk): 102.94% | % of Initial Concentration ([2]; pH 5.0, 40° C., 8 wk, flagged out of trend): 122.32* % | % of Initial Concentration ([2]; pH 5.0, 40° C., 12 wk, flagged out of trend): 112.61* % | % of Initial Concentration ([2]; ~pH 8, 30° C., 0 wk): 100.38% | % of Initial Concentration ([2]; ~pH 8, 30° C., 1 wk): 99.64% | % of Initial Concentration ([2]; ~pH 8, 30° C., 2 wk): 99.60% | % of Initial Concentration ([2]; ~pH 8, 30° C., 4 wk): 96.62% | % of Initial Concentration ([2]; ~pH 8, 30° C., 8 wk, flagged out of trend): 26.79* % | % of Initial Concentration ([2]; ~pH 8, 30° C., 12 wk): 89.93% | % of Initial Concentration ([2]; ~pH 8, 40° C., 0 wk): 100.38% | % of Initial Concentration ([2]; ~pH 8, 40° C., 1 wk): 97.44% | % of Initial Concentration ([2]; ~pH 8, 40° C., 2 wk): 93.75% | % of Initial Concentration ([2]; ~pH 8, 40° C., 4 wk): 86.72% | % of Initial Concentration ([2]; ~pH 8, 40° C., 8 wk): 72.25% | % of Initial Concentration ([2]; ~pH 8, 40° C., 12 wk): 61.36% | Ki ([3]; displacement of [3H]-CGP-12177, CHO cells, read-out: Ki for the β2 receptor): 2210 nM | β1/β2 binding ratio ([3]; ratio of β1 to β2 binding Ki): > 9 | inhibition at 20 µM ([4]; at a concentration of 20 μM, read-out: inhibition of specific binding, β1 receptor): 30% | Ki ([4]; displacement of [125I]-cyanopidolol, CHO cells, read-out: Ki for the β1 receptor): > 20000 nM | melting point: 97 to 100 °C | activation at 30 µM (adrenergic β1 receptors): 32% | EC50 (adrenergic β2 receptors; isolated guinea pig trachea): 120 nM | β1/β2 functional ratio (adrenergic β2 receptors; ratio of β1 to β2 functional EC50): > 250
